Source: paper PMC8725837, “2-Arylquinolines as novel anticancer agents with dual EGFR/FAK kinase inhibitory activity: synthesis, biological evaluation, and molecular modelling insights” (Journal of Enzyme Inhibition and Medicinal Chemistry, 2021)

How the values were obtained:
[1] = biological target: FAK (Homo sapiens, UniProt Q05397); assay: Z`-LYTE kinase inhibitory assay, FAK
[2] = biological target: T1, FRK (Homo sapiens, UniProt P42685); assay: Z`-LYTE kinase profiling, FRK; assay type: biochemical
T1 construct: purchased Invitrogen/Life Technologies

[3] = test system: MDMBA-231 breast cancer cell line; assay: MTT antiproliferative assay, MDMBA-231; assay type: cell-based; conditions: 10 µM, 24 h
Description: (§1) At least, three independent experiments were performed.

[4] = biological target: T2, VEGFR-2 (Homo sapiens, UniProt P35968); assay: Z`-LYTE kinase profiling, VEGFR-2; assay type: biochemical
T2 construct: purchased Invitrogen/Life Technologies

[5] = biological target: T3, HER-2 (Homo sapiens, UniProt P04626); assay: Z`-LYTE kinase profiling, HER-2; assay type: biochemical
T3 construct: purchased Invitrogen/Life Technologies

[6] = test system: HeLa cervical cancer cell line; assay: MTT antiproliferative assay, HeLa; assay type: cell-based; conditions: 10 µM, 24 h
Description: as §1

[7] = biological target: EGFR (Homo sapiens, UniProt P00533); assay: Z`-LYTE kinase inhibitory assay, EGFR
[8] = test system: HCT-116 colorectal cancer cell line; assay: MTT antiproliferative assay, HCT-116; conditions: for GI% HCT-116: 10 µM, 24 h, MTT; for IC50: Homo sapiens, HCT-116, 24 h, read-out: IC50 HCT-116 (half maximal growth inhibitory concentration)
Description: After the incubation of the tested compounds for 24 h, the percent growth inhibition (GI%) was calculated.
Cells were seeded at 1 × 10^4 cells/well and cultured overnight in a 96-well plate. […] Then, 150 µl DMSO was used to solubilise MTT formazan crystals. Finally, the plates were shaken, and the optical density was determined at 570 nm using ELISA plate reader. At least, three independent experiments were performed. Percentage of growth inhibition was determined as (1-[OD of treated cells/OD of control cells]). […] The IC50 values were calculated using Prism v0.8 software (GraphPad Software Inc., La Jolla, CA).

[9] = test system: DLD-1 colorectal cancer cell line; assay: MTT antiproliferative assay, DLD-1; conditions: for GI% DLD1: 10 µM, 24 h, MTT; for IC50: Homo sapiens, DLD-1, 24 h, read-out: IC50 DLD1 (half maximal growth inhibitory concentration)
[10] = biological target: T4, recombinant human TOP1 (Homo sapiens, UniProt P11387); assay: Topoisomerase I-mediated DNA cleavage assay; conditions: tested at 0.1, 1, 10, 100 µM
T4 sequence (P11387 1-765): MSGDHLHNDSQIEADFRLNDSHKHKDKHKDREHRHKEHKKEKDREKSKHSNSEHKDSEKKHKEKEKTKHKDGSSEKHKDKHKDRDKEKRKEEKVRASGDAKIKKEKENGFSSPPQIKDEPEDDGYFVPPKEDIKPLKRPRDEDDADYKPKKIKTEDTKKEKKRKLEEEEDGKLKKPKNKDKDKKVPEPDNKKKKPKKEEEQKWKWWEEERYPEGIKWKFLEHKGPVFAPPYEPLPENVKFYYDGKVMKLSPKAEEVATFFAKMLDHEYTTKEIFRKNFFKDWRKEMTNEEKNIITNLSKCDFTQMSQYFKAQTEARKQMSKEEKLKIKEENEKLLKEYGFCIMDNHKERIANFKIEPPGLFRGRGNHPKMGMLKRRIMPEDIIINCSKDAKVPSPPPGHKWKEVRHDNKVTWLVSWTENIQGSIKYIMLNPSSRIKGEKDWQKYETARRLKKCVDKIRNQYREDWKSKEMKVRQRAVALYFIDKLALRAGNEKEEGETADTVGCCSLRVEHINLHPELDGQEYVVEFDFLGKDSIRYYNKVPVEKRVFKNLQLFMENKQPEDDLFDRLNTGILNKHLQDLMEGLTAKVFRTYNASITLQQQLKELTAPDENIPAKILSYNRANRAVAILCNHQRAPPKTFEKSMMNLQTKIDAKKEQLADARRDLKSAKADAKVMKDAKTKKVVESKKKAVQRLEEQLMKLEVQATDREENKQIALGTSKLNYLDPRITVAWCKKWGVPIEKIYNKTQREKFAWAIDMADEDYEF
Description: Radiolabeled DNA was incubated with recombinant human TOP1 in 20 µL reaction buffer (10 mmol/L Tris-HCl, pH 7.5, 50 mmol/L KCl, 5 mmol/L MgCl2, 0.1 mmol/L EDTA, and 15 µg/mL BSA) at 30 °C for 20 min in the presence of the indicated drug concentrations. Reactions were terminated by adding SDS (0.5% final concentration) followed by the addition of two volumes of loading dye (80% formamide, 10 mmol/L sodium hydroxide, 1 mmol/L sodium EDTA, 0.1% xylene cyanol, and 0.1% bromophenol blue). Aliquots of reaction mixtures were subjected to 20% denaturing PAGE. Gels were dried and visualised by using PhosphorImager and Image Quant software (Molecular Dynamics).

[11] = biological target: T5, IGF-1R (Homo sapiens, UniProt P08069); assay: Z`-LYTE kinase profiling, IGF-1R; assay type: biochemical
T5 construct: purchased Invitrogen/Life Technologies

[12] = test system: MCF-7 breast cancer cell line; assay: MTT antiproliferative assay, MCF-7; assay type: cell-based; conditions: 10 µM, 24 h
Description: as §1

[13] = biological target: T6, BTK (Homo sapiens, UniProt Q06187); assay: Z`-LYTE kinase profiling, BTK; assay type: biochemical
T6 construct: purchased Invitrogen/Life Technologies

[14] = biological target: T7, VEGFR-1 (Homo sapiens, UniProt P17948); assay: Z`-LYTE kinase profiling, VEGFR-1; assay type: biochemical
T7 construct: purchased Invitrogen/Life Technologies

[15] = biological target: T8, c-Src (Homo sapiens, UniProt P12931); assay: Z`-LYTE kinase profiling, c-Src; assay type: biochemical
T8 construct: purchased Invitrogen/Life Technologies
T8 sequence (P12931 whole entry): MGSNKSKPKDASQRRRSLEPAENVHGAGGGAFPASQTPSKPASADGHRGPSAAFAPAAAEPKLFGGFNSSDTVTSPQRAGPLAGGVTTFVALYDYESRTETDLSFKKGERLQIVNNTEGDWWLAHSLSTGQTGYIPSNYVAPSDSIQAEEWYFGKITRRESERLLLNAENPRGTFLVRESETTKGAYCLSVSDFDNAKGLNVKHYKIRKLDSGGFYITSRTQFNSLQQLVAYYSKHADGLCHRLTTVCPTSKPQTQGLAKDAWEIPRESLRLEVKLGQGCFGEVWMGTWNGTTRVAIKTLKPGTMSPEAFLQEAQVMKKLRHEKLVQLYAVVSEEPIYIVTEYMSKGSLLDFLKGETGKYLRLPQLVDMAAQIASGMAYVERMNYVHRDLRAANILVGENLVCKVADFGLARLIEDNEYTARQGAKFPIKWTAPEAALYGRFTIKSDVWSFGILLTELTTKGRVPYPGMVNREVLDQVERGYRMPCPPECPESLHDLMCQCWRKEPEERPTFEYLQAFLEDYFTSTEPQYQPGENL

T3 sequence (P04626 23-1255): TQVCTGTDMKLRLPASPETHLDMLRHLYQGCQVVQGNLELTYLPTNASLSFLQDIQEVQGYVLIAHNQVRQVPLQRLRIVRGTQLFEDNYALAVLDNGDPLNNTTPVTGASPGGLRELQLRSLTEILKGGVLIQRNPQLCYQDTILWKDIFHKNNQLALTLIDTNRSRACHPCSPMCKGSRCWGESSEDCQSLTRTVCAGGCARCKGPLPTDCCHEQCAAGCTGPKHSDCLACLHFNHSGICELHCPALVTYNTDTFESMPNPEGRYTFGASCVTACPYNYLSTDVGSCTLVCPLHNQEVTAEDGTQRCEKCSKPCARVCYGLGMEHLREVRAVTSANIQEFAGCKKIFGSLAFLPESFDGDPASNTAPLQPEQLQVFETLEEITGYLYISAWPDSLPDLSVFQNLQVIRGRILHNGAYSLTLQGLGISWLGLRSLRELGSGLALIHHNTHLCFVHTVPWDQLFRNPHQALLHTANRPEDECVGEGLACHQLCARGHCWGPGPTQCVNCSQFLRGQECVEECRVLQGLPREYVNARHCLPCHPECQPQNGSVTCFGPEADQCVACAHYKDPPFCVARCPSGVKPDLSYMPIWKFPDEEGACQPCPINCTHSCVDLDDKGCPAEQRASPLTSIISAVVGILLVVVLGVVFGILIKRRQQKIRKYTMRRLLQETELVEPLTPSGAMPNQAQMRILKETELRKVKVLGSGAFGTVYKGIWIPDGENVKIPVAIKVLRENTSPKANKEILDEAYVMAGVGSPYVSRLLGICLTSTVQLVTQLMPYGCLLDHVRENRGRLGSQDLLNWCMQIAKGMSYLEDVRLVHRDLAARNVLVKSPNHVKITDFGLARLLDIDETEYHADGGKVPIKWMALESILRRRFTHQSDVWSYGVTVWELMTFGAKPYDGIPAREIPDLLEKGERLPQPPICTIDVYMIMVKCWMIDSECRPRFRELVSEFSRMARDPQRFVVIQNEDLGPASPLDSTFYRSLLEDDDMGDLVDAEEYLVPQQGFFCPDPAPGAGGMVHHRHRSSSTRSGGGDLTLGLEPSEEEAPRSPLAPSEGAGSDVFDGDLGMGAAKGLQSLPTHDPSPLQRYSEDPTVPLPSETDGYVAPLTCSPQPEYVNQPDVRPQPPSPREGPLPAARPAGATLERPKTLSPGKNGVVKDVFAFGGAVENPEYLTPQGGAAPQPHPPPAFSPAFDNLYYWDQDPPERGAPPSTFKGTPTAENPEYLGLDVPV
T5 sequence (P08069 31-1367): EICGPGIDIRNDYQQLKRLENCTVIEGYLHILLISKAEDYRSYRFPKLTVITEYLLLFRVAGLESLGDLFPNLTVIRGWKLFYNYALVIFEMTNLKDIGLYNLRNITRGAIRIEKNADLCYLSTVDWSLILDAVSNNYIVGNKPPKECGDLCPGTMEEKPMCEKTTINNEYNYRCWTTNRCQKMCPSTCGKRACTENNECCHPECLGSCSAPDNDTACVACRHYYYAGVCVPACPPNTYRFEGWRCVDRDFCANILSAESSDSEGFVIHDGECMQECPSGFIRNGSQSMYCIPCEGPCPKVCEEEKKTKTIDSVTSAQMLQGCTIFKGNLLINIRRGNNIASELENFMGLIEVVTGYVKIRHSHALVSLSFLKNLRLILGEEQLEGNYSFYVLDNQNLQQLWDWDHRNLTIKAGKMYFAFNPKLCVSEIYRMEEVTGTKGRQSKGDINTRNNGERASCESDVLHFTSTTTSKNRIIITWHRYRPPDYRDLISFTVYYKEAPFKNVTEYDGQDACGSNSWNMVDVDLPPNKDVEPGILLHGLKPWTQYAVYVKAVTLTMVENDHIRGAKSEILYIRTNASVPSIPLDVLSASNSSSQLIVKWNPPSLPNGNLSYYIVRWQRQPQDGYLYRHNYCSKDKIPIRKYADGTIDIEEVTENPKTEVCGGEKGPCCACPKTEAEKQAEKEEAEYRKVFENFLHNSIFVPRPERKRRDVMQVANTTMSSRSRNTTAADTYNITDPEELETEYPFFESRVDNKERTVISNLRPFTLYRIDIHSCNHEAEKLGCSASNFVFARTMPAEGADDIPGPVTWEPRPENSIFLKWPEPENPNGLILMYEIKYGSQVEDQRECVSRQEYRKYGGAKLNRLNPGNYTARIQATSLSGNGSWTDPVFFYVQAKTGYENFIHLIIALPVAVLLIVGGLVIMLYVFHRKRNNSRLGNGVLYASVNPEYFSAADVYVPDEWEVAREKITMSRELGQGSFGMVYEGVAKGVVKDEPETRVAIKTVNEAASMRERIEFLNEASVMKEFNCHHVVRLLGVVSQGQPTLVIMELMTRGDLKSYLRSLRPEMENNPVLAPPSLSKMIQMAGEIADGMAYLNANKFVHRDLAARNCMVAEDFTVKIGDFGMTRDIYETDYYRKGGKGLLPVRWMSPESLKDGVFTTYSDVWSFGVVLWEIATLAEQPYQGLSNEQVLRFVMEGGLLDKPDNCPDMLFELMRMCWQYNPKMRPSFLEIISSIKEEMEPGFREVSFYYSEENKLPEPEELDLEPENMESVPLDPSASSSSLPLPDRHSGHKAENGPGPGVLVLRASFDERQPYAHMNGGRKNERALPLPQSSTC
T1 sequence (P42685 whole entry): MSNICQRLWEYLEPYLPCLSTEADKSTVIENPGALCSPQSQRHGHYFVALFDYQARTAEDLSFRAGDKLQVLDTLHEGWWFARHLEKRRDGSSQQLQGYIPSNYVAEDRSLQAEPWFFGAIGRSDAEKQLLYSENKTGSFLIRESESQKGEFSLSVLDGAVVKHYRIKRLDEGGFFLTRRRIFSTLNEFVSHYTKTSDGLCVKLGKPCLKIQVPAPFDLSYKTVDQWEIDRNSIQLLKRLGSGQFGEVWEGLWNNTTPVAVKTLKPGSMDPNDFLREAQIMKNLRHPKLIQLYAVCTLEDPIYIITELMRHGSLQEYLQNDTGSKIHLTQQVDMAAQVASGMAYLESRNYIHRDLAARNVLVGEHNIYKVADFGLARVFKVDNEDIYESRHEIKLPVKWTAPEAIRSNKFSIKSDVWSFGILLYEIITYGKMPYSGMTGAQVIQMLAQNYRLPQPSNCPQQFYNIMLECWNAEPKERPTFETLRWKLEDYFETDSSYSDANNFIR
T7 sequence (P17948 27-1338): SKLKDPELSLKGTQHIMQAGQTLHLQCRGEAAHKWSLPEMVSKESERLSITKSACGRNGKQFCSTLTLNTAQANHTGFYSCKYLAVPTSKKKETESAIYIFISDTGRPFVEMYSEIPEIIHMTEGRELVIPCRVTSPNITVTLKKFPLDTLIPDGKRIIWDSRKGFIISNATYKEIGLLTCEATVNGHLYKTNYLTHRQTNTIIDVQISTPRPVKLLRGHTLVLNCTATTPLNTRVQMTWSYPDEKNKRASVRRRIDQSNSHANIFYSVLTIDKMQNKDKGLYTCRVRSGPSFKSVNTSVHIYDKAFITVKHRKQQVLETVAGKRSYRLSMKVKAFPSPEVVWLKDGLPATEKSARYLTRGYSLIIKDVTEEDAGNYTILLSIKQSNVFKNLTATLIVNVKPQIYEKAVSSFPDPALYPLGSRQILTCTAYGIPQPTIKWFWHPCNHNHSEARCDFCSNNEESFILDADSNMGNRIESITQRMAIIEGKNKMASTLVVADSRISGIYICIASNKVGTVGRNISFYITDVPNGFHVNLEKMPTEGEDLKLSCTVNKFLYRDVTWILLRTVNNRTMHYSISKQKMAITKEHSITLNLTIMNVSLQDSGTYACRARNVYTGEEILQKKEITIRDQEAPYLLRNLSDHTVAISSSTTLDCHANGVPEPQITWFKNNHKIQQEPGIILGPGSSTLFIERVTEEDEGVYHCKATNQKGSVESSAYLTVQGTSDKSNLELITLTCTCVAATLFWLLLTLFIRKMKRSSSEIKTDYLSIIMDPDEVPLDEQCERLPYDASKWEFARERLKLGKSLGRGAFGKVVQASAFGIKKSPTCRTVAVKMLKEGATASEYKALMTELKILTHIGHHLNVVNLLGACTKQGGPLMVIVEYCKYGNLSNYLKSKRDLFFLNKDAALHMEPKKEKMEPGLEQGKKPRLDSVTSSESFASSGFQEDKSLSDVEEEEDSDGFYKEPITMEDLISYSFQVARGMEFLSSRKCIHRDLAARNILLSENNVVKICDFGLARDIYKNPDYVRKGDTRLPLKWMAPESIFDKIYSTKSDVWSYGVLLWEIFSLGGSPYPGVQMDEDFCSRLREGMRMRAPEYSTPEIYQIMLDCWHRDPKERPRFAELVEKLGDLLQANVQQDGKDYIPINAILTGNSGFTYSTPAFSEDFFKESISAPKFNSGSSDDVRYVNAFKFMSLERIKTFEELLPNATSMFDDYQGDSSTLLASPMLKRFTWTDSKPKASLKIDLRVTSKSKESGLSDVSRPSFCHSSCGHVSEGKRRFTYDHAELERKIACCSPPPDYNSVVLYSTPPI

Row | Structure (SMILES) | IC50 [1] [µM] | IC50 [2] [µM] | IC50 [4] [µM] | IC50 [5] [µM] | IC50 [7] [µM] | IC50 [8] [µM] | melting point [°C] | IC50 [9] [µM] | TOP1 inhibitory activity (semiquantitative score relative to 1 µM CPT) [10] | IC50 [11] [µM] | IC50 [13] [µM] | IC50 [14] [µM] | IC50 [15] [µM] | fold decreased activity than Gefitinib, EGFR ([7]; from IC50 values) [fold] | GI% MDMBA-231 [3] [%] | GI% Hela [6] [%] | GI% HCT-116 [8] [%] | GI% DLD1 [9] [%] | GI% MCF-7 [12] [%]
1 | COc1cc2nc(-c3ccc(Cl)cc3)cc(OCCCNC3CCN(C)CC3)c2cc1OC [6c, N-(3-((2–(4-chlorophenyl)-6,7-dimethoxyquinolin-4-yl)oxy)propyl)-1-methylpiperidin-4-amine] | 0.0457 ± 0.0034 | 1.56 | 0.405 | 1.38 | 0.0857 ± 0.00646 | 13.7 ± 1.29 | 124 to 126 | 47 ± 2.46 | −/+ (−/+: 0–25% 1 µM CPT) | 2.03 | 2.25 | 0.606 | 1.5 | 2 | 19.38 | 4.96 | 41.36 | 28.22 | 15.76
2 | COc1cc2nc(-c3ccc(C)cc3)cc(OCCCN3CCN(C)CC3)c2cc1OC [6k, 6,7-dimethoxy-4–(3-(4-methylpiperazin-1-yl)propoxy)-2-(p-tolyl)quinoline] | 0.158 ± 0.00873 | 3.17 | 5.96 | 1.35 | 0.41 ± 0.0127 | > 100 | 128 to 130 | > 100 | 0 | 2.4 | 2.76 | 5.04 | 6.45 |  | 8.64 | 11.32 | 22.15 | 18.69 | 17.49
3 | FC(F)(F)c1ccc(-c2cc(OCCCNC3CCCCC3)c3ccccc3n2)cc1 [10b, N-(3-((2-(4-(trifluoromethyl)phenyl)quinolin-4-yl)oxy)propyl)cyclohexanamine] | 0.165 ± 0.00537 | 4.37 | 8.68 | 0.598 | 0.18 ± 0.00912 | > 100 | 68 to 70 | 40.3 ± 2.09 | 0 | 5.74 | 2.98 | 8.51 | 7.78 |  | 45.35 | 55.49 | 24.10 | 35.72 | 64.81
4 | COc1cc2nc(-c3ccc(Cl)cc3)cc(OCCCN3CCN(C)CC3)c2cc1OC [6a, 2-(4-chlorophenyl)-6,7-dimethoxy-4–(3-(4-methylpiperazin-1-yl)propoxy)quinoline] | 0.2144 ± 0.00109 | 0.825 | 0.268 | 1.24 | 0.143 ± 0.00254 | 65.4 ± 4.37 | 140 to 142 | > 100 | −/+ (−/+: 0–25% 1 µM CPT) | 1.02 | 1.59 | 0.0953 | 0.783 |  | 9.38 | 20.15 | 31.34 | 22.56 | 17.34
5 | FC(F)(F)c1ccc(-c2cc(OCCCn3ccnc3)c3cc4c(cc3n2)OCO4)cc1 [12c, 8-(3-(1H-imidazol-1-yl)propoxy)-6-(4-(trifluoromethyl)phenyl)-[1,3]dioxolo[4,5-g]qui-noline] | 0.111 ± 0.00894 | 4.88 | 0.0569 | 0.169 | 0.247 ± 0.0123 | 6.37 ± 1.09 | 125 to 127 | 9.12 ± 2.11 | 0 | 9 | 0.0995 | 7.72 | 0.119 |  | 61.94 | 68.22 | 80.49 | 71.94 | 43.27

Molecules with a lower IC50 [1], results first:

Row | IC50 [1] [µM] | IC50 [2] [µM] | IC50 [4] [µM] | IC50 [5] [µM] | IC50 [7] [µM] | IC50 [8] [µM] | melting point [°C] | IC50 [9] [µM] | TOP1 inhibitory activity (semiquantitative score relative to 1 µM CPT) [10] | IC50 [11] [µM] | IC50 [13] [µM] | IC50 [14] [µM] | IC50 [15] [µM] | fold decreased activity than Gefitinib, EGFR ([7]; from IC50 values) [fold] | Structure (SMILES) | GI% MDMBA-231 [3] [%] | GI% Hela [6] [%] | GI% HCT-116 [8] [%] | GI% DLD1 [9] [%] | GI% MCF-7 [12] [%]
6 | 0.0441 ± 0.00326 | 6.15 | 3.41 | 2.02 | 0.222 ± 0.00825 | 6.15 ± 1.3 | 149 to 151 | 8.22 ± 1.12 | 0 | 5.23 | 4.8 | 1.96 | 1.35 |  | Clc1ccc(-c2cc(OCCCn3ccnc3)c3cc(Br)ccc3n2)cc1 [16a, 4-(3-(1H-imidazol-1-yl)propoxy)-6-bromo-2-(4-chlorophenyl)quinoline] | 51.24 | 47.35 | 76.17 | 60.08 | 22.97
7 | 0.0298 ± 0.00237 | 3.92 | 8.37 | 1.07 | 0.0355 ± 0.0015 | 9.84 ± 0.68 | 155 to 157 | 7.34 ± 1.22 | 0 | 3.9 | 2.92 | 6.96 | 7.2 |  | COc1cc2nc(-c3ccc(-c4cccs4)cc3)cc(OCCCN3CCN(C)CC3)c2cc1OC [8b, 6,7-dimethoxy-4–(3-(4-methylpiperazin-1-yl)propoxy)-2–(4-(thiophen-2-yl)phenyl)quinol-ine] | 36.87 | 50.81 | 52.10 | 74.25 | 74.90
8 | 0.0264 ± 0.00281 | 0.743 | 2.4 | 0.756 | 0.0349 ± 0.00376 | 8.11 ± 1.04 | 126 to 128 | 6.34 ± 0.52 | −/+ (−/+: 0–25% 1 µM CPT) | 1.82 | 1.61 | 0.346 | 1.92 |  | COc1cc2nc(-c3ccc(C)cc3)cc(OCCCNC3CCCCC3)c2cc1OC [6l, N-(3-((6,7-dimethoxy-2-(p-tolyl)quinolin-4-yl)oxy)propyl)cyclohexanamine] | 38.36 | 34.29 | 69.15 | 75.34 | 44.71
9 | 0.0254 ± 0.00348 | 0.216 | 0.243 | 0.0988 | 0.0337 ± 0.00102 | 4.75 ± 1.02 | 130 to 132 | 4.46 ± 0.65 | 0 | 3.01 | 0.271 | 0.72 | 0.138 |  | Clc1ccc(-c2cc(OCCCn3ccnc3)c3cc(-c4ccco4)ccc3n2)cc1 [20e, 4-(3-(1H-imidazol-1-yl)propoxy)-2-(4-chlorophenyl)-6-(furan-2-yl)quinoline] | 56.29 | 65.73 | 89.64 | 90.65 | 73.61
